In ChEMBL document CHEMBL3352057, “Novel fluorinated pyrrolo[1,2-a]pyrazine-2,6-dione derivatives: synthesis and anticonvulsant evaluation in animal models of epilepsy” (Bioorg Med Chem, 2014):
Activity calls are given as the source filed them. The calls are words filed in the database; no cut-off is given here.

Columns and labels:
Mus musculus [1] = test: Anticonvulsant activity in albino CF1 mouse assessed as protection against maximal electroshock-induced seizures at 100 mg/kg, ip measured after 0.25 hr; type: functional, organism-based; design: dose 100 mg/kg
Mus musculus [2] = test: Anticonvulsant activity in albino CF1 mouse assessed as protection against maximal electroshock-induced seizures at 100 mg/kg, ip measured after 0.5 hr; type: functional, organism-based; design: dose 100 mg/kg
Mus musculus [3] = test: Anticonvulsant activity in albino CF1 mouse assessed as protection against maximal electroshock-induced seizures at 100 mg/kg, ip measured after 1 hr; type: functional, organism-based; design: dose 100 mg/kg
Mus musculus [4] = test: Anticonvulsant activity in albino CF1 mouse assessed as protection against maximal electroshock-induced seizures at 100 mg/kg, ip measured after 4 hrs; type: functional, organism-based; design: dose 100 mg/kg
Mus musculus [5] = test: Anticonvulsant activity in albino CF1 mouse assessed as protection against subcutaneous metrazol-induced seizures at 100 mg/kg, ip measured after 0.25 hr; type: functional, organism-based; design: dose 100 mg/kg
Mus musculus [6] = test: Anticonvulsant activity in albino CF1 mouse assessed as protection against subcutaneous metrazol-induced seizures at 100 mg/kg, ip measured after 0.5 hr; type: functional, organism-based; design: dose 100 mg/kg
Mus musculus [7] = test: Anticonvulsant activity in albino CF1 mouse assessed as protection against subcutaneous metrazol-induced seizures at 100 mg/kg, ip measured after 1 hr; type: functional, organism-based; design: dose 100 mg/kg
Mus musculus [8] = test: Anticonvulsant activity in albino CF1 mouse assessed as protection against subcutaneous metrazol-induced seizures at 100 mg/kg, ip measured after 4 hrs; type: functional, organism-based; design: dose 100 mg/kg
Mus musculus [9] = test: Neurotoxicity in albino CF1 mouse at 100 mg/kg, ip measured after 0.25 hr; type: toxicity, organism-based; design: dose 100 mg/kg, route intraperitoneal; conditions: in vivo
Mus musculus [10] = test: Neurotoxicity in albino CF1 mouse at 100 mg/kg, ip measured after 0.5 hr; type: toxicity, organism-based; design: dose 100 mg/kg, route intraperitoneal; conditions: in vivo
Mus musculus [11] = test: Neurotoxicity in albino CF1 mouse at 100 mg/kg, ip measured after 1 hr; type: toxicity, organism-based; design: dose 100 mg/kg, route intraperitoneal; conditions: in vivo
Mus musculus [12] = test: Neurotoxicity in albino CF1 mouse at 100 mg/kg, ip measured after 4 hrs; type: toxicity, organism-based; design: dose 100 mg/kg, route intraperitoneal; conditions: in vivo
Mus musculus [13] = test: Anticonvulsant activity in albino CF1 mouse assessed as protection against 32 mA current-induced seizures at 100 mg/kg, ip measured after 0.25 hr; type: functional, organism-based; design: dose 100 mg/kg
Mus musculus [14] = test: Anticonvulsant activity in albino CF1 mouse assessed as protection against 32 mA current-induced seizures at 100 mg/kg, ip measured after 0.5 hr; type: functional, organism-based; design: dose 100 mg/kg
Mus musculus [15] = test: Anticonvulsant activity in albino CF1 mouse assessed as protection against 32 mA current-induced seizures at 100 mg/kg, ip measured after 1 hr; type: functional, organism-based; design: dose 100 mg/kg
Mus musculus [16] = test: Anticonvulsant activity in albino CF1 mouse assessed as protection against 32 mA current-induced seizures at 100 mg/kg, ip measured after 2 hrs; type: functional, organism-based; design: dose 100 mg/kg
Mus musculus [17] = test: Anticonvulsant activity in albino CF1 mouse assessed as protection against 32 mA current-induced seizures at 100 mg/kg, ip measured after 4 hrs; type: functional, organism-based; design: dose 100 mg/kg
Mus musculus [18] = test: Neurotoxicity in 32 mA current-induced seizure albino CF1 mouse model at 100 mg/kg, ip measured after 0.25 hr; type: toxicity, organism-based; design: dose 100 mg/kg, route intraperitoneal; conditions: in vivo
Mus musculus [19] = test: Neurotoxicity in 32 mA current-induced seizure albino CF1 mouse model at 100 mg/kg, ip measured after 0.5 hr; type: toxicity, organism-based; design: dose 100 mg/kg, route intraperitoneal; conditions: in vivo
Mus musculus [20] = test: Neurotoxicity in 32 mA current-induced seizure albino CF1 mouse model at 100 mg/kg, ip measured after 1 hr; type: toxicity, organism-based; design: dose 100 mg/kg, route intraperitoneal; conditions: in vivo
Mus musculus [21] = test: Neurotoxicity in 32 mA current-induced seizure albino CF1 mouse model at 100 mg/kg, ip measured after 2 hrs; type: toxicity, organism-based; design: dose 100 mg/kg, route intraperitoneal; conditions: in vivo
Mus musculus [22] = test: Neurotoxicity in 32 mA current-induced seizure albino CF1 mouse model at 100 mg/kg, ip measured after 4 hrs; type: toxicity, organism-based; design: dose 100 mg/kg, route intraperitoneal; conditions: in vivo
Rattus norvegicus [23] = test: Anticonvulsant activity in pilocarpine-induced status prevention Sprague-Dawley rat model assessed as weight change 24 hrs post-first stage 3 seizure of protected rat at 300 mg/kg, ip measured after 0.5 hr; type: functional; conditions: route intraperitoneal
Rattus norvegicus [24] = test: Anticonvulsant activity in pilocarpine-induced status prevention Sprague-Dawley rat model assessed as weight change 24 hrs post-first stage 3 seizure of non-protected rat at 300 mg/kg, ip measured after 0.5 hr; type: functional; conditions: route intraperitoneal
Mus musculus [25] = test: Anticonvulsant activity in ip dosed albino CF1 mouse assessed as protection against maximal electroshock-induced seizures; type: functional
Mus musculus [26] = test: Anticonvulsant activity in ip dosed albino CF1 mouse assessed as protection against subcutaneous metrazol-induced seizures; type: functional
[27] = Neurotoxicity in ip dosed albino CF1 mouse; type: toxicity, organism-based; conditions: in vivo
Mus musculus [28] = test: Anticonvulsant activity in ip dosed albino CF1 mouse assessed as protection against maximal electroshock-induced seizures measured as time to peak effect; type: functional
Mus musculus [29] = test: Anticonvulsant activity in ip dosed albino CF1 mouse assessed as protection against 6 Hz current-induced seizures; type: functional
Mus musculus [30] = test: Neurotoxicity in ip dosed 6 Hz current-induced seizure albino CF1 mouse model; type: toxicity, organism-based; conditions: in vivo
Mus musculus [31] = test: Anticonvulsant activity in ip dosed albino CF1 mouse assessed as protection against 6 Hz current-induced seizures measured as time to peak effect; type: functional
Rattus norvegicus [32] = test: Anticonvulsant activity in ip dosed hippocampal kindled albino Sprague-Dawley rat seizure model; type: functional; conditions: Hippocampus
Rattus norvegicus [33] = test: Anticonvulsant activity in ip dosed hippocampal kindled albino Sprague-Dawley rat seizure model assessed as time of rest; type: functional, Hippocampus

SMILES: O=C1NC(=O)[C@@H]2CCCN2[C@H]1c1ccc(F)cc1
- Activity (Mus musculus [1]): Active
- Activity (Mus musculus [2]): inactive
- Activity (Mus musculus [3]): Active
- Activity (Mus musculus [4]): inactive
- Activity (Mus musculus [5]): Active
- Activity (Mus musculus [6]): inactive
- Activity (Mus musculus [7]): inactive
- Activity (Mus musculus [8]): inactive
- Activity (Mus musculus [9]): Non-toxic
- Activity (Mus musculus [10]): Non-toxic
- Activity (Mus musculus [11]): Non-toxic
- Activity (Mus musculus [12]): Non-toxic
- Activity (Mus musculus [13]): Active
- Activity (Mus musculus [14]): inactive
- Activity (Mus musculus [15]): inactive
- Activity (Mus musculus [16]): inactive
- Activity (Mus musculus [17]): inactive
- Activity (Mus musculus [18]): Non-toxic
- Activity (Mus musculus [19]): Non-toxic
- Activity (Mus musculus [20]): Non-toxic
- Activity (Mus musculus [21]): Non-toxic
- Activity (Mus musculus [22]): Non-toxic
- Activity (Rattus norvegicus [23]): -12 g
- Activity (Rattus norvegicus [24]): -30 g

SMILES: CCC1(C)CC(=O)NC1=O (configuration not stated) [ETHOSUXIMIDE]
- ED50 (Mus musculus [25]): > 3550 µmol/kg
- ED50 (Mus musculus [26]): 964 µmol/kg
- TD50 [27]: 2420 µmol/kg
- Time (Mus musculus [28]): 0.25 h
- ED50 (Mus musculus [29]): 1180 µmol/kg
- ED50 (Mus musculus [30]): 166 µmol/kg
- Time (Mus musculus [31]): 0.25 h

SMILES: COC[C@@H](NC(C)=O)C(=O)NCc1ccccc1 [LACOSAMIDE]
- ED50 (Mus musculus [25]): 18 µmol/kg
- ED50 (Mus musculus [26]): > 100 µmol/kg
- TD50 [27]: 107 µmol/kg
- Time (Mus musculus [28]): 0.5 h
- ED50 (Rattus norvegicus [32]): 56 µmol/kg
- Time (Rattus norvegicus [33]): 0.25 h
